Measured values reported in patent US20250243160A1, “INDOLE DERIVATIVES FOR TARGETING AUTOPHAGY” (Automera PTE. LTD, priority 2024, published 2025).

Biological target: Recombinant p62 protein (Homo sapiens, UniProt Q13501)
Assay: Surface plasmon resonance (SPR) compound binding to p62
Conditions: 15° C
Protocol: Recombinant p62 protein was buffer exchanged into Biacore SPR running buffer (Cytiva 100671) using the Slide-A-Lyzer Mini Dialysis system 7K MWCO (Thermo Fisher Scientific, Cat no. 69560). The final protein concentration was determined using the Nanodrop One spectrophotometer (Thermo Fisher Scientific, cat no. ND-ONE-W), with calibration for the dialysis buffer.
The prepared protein was diluted in sodium acetate buffer (NaAc, pH 5.5, Cytiva) to concentrations ranging from approximately 0.25-40 μg/mL. Post-immobilization, the protein required approximately 16 hours of equilibration in running buffer supplemented with 1% DMSO at 15° C. to ensure adequate surface equilibration and protein reorganization.
All SPR experiments were conducted at a constant temperature of 15° C. The SPR chip surface was activated using EDC/NHS for a contact time of 6-10 min at a flow rate of 10 μL/min. This was followed by protein immobilization for 2100 seconds and ethanolamine capping for 420 seconds, both at the same flow rate. Immediately after immobilization, the NH2-REEE peptide was analyzed in Single Cycle Kinetics mode (SCK) to verify surface activity, ensuring it binds the sample with the published affinity (˜20 μM by SPR).
For general compound binding studies, experiments were performed at 15° C. using a running buffer composed of 10 mM HEPES, 150 mM NaCl, 1 mM DTT, 0.05% Tween 20, and 1% DMSO at pH 7.4. The test compound was initially prepared at a 20 mM concentration in DMSO and subsequently titrated in 2-fold dilutions. For each assay, 2 μL of the compound was mixed with 198 μL of the running buffer, and the mixture was thoroughly pipetted approximately 15 times for homogenization.
A series of blank injections (0 μM concentration) were included for double referencing, with at least 8 or 16 per plate depending on the format. Typical injection parameters were 120 seconds for association and 180 seconds for dissociation at a flow rate of […]. A four-point solvent correction was prepared with DMSO concentrations ranging from 2% to 0.5% in the buffer. Post each compound injection, the system's needles were washed with 50% DMSO.
Analysis of the SPR data was conducted using the Cytiva Evaluation software. The binding levels at the late time-point of each interaction were corrected for reference, then normalized to percentage bound values to account for variations in immobilization levels, protein molecular weight, and compound molecular weight.
Compound binding studies were carried out according to experimental procedures above and SPR % occupancy was determined and summarized in Table 7.

Chain of Recombinant p62 protein (Q13501 whole entry, species assumed): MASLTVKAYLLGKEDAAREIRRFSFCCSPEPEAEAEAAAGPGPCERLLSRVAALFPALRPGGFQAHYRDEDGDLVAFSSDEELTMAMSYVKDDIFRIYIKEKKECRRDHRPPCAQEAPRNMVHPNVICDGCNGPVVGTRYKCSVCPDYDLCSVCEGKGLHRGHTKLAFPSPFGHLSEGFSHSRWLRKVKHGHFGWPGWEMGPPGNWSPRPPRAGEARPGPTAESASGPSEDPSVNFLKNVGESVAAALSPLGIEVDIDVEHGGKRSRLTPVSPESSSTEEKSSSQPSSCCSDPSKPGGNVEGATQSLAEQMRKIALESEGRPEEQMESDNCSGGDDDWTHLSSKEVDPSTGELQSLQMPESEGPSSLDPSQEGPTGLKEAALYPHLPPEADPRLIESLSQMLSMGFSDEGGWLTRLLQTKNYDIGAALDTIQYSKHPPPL

Structure (SMILES)	receptor occupancy at 100 µM
OCCNCc1cccc2c1CN(Cc1ccccc1)C2 [Compound 42, 2-(((2-benzylisoindolin-4-yl)methyl)amino)ethan-1-ol]	< 30%
COc1ccc(Cn2ccc3c(CNCCO)cccc32)cc1 [Compound 15]	30 to 70%
OCCNCc1cccc2c1ccn2Cc1ncc[nH]1 [Compound 22]	< 30%
O=C(CCO)Nc1cccc2c1ccn2Cc1ccccc1 [Compound 8]	< 30%
OCCNCc1ccnc2c1ccn2Cc1ccccc1 [Compound 50]	< 30%
OCCNCc1cccc2c1ccn2CC1CCOCC1 [Compound 24]	30 to 70%
O=C(c1ccccc1)n1ccc2c(CNCCO)cccc21 [Compound 16, (4-(((2-hydroxyethyl)amino)methyl)-1H-indol-1-yl)(phenyl)methanone]	> 70%

Test system: p62 puncta
Assay: p62 puncta immunocytochemistry imaging in HeLa cells
Type: cell-based
Conditions: 24 hours treatment, relative to vehicle control (DMSO)
Protocol: HeLa cells were seeded in coated 96-well plates (10,000 cells) and allowed to adhere overnight. After 24 hours of treatment with either vehicle (DMSO) or test compounds, the media was discarded, and cells were rinsed with ice-cold 1×PBS before fixation by 4% formaldehyde or paraformaldehyde for 20 min. Cells were then washed with 1×PBS and permeabilized with 0.1% Triton X-100 in PBS for 20 min and blocked with Blocking Buffer in PBS for 1 hour. The cells were incubated thereafter for 1 hour with anti-p62 primary antibody in Blocking Buffer, followed by incubation with secondary antibody for 1 hour. DAPI dye was used to visualize nuclei of fixed cells. The blocking buffer used were 5% Fetal Bovine Serum (FBS, ThermoFIsher Scientific, 10270106) and Li-cor Intercept (PBS) Blocking Buffer (Li-cor, 927-70001). The primary antibody used was mouse anti-p62 primary antibody (Novus Biologicals, H00008878-M01). The secondary antibodies used were goat anti-mouse Alexa Fluor Plus 488 secondary antibody (Invitrogen, GOXMS) and goat anti-mouse Alexa Fluor 488 secondary antibody (Invitrogen, A-11029). The DAPI dyes used were DAPI dye (Invitrogen, 62248) and DAPI dye (Invitrogen, D1306).
For the EVOS M7000 System, cells were imaged on the EVOS M7000 microscope using a 20× air objective (Nikon, N.A 0.45). DAPI and p62 channels were illuminated with LED light cubes using integrated hard-coated filter sets for DAPI (357/447 nm) and GFP (470/525 nm) respectively. Images were analysed for p62 puncta count on the Celeste 6.0 software.
For the Operetta CLS System, cells were imaged on the Operetta CLS using a 63× water objective on the DAPI and Alexa 488 channels. Images were analysed for p62 puncta count on the Harmony 5.1 software.
HeLa cells were treated with compounds for 24 hours to evaluate the effect of these compounds on p62 puncta activity. The resulting changes in levels of p62 puncta were assessed by imaging, either on the EVOS M7000 or Operetta CLS systems as described in experimental procedures. The fold change of p62 puncta levels induced by compound treatment relative to vehicle control (DMSO) was determined and summarized in Table 10.

Structure (SMILES)	p62 puncta (fold change of p62 puncta levels)
C#CCCOCCOCCOCCNCc1ccc(Cl)c2c1ccn2Cc1ccccc1 [Compound 122]	++ (>2-fold change in p62 puncta levels relative to DMSO control)
CC(C)(C)OC(=O)N1CCC(OCCNCc2cc(F)cc3c2ccn3Cc2ccc(Cl)cc2)C1 (stereo not shown) [Compound 166]	++ (>2-fold change in p62 puncta levels relative to DMSO control)
CC(C)(C)OC(=O)NCC1CC(COCCNCc2cc(F)cc3c2ccn3Cc2ccc(Cl)cc2)C1 (stereo not shown) [Compound 172]	++ (>2-fold change in p62 puncta levels relative to DMSO control)
C#CCCOCCOCCOCCNCc1cc(F)cc2c1ccn2Cc1ccc(Cl)cc1 [Compound 87, 2-(2-(2-(but-3-yn-1-yloxy)ethoxy)ethoxy)-N-((1-(4-chlorobenzyl)-6-fluoro-1H-indol-4-yl)methyl)ethan-1-amine]	++ (>2-fold change in p62 puncta levels relative to DMSO control)
O=C(Cn1ccc2c(CNCCO)cc(F)cc21)c1ccc(F)cc1 [Compound 83, 2-(6-fluoro-4-(((2-hydroxyethyl)amino)methyl)-1H-indol-1-yl)-1-(4-fluorophenyl)ethan-1-one]	++ (>2-fold change in p62 puncta levels relative to DMSO control)
CC(C)NCC(O)COc1ccc2c(ccn2Cc2ccccc2)c1 (stereo not shown) [Compound 39]	++ (>2-fold change in p62 puncta levels relative to DMSO control)
C#CCCN1CCC(OCCNCc2cc(F)cc3c2ccn3Cc2ccc(Cl)cc2)CC1 [Compound 119]	++ (>2-fold change in p62 puncta levels relative to DMSO control)
CC(C)(C)OC(=O)CCCOCCNCc1cc(F)cc2c1ccn2Cc1ccc(Cl)cc1 [Compound 154]	++ (>2-fold change in p62 puncta levels relative to DMSO control)
CC(C)(C)OC(=O)NC1(COCCNCc2cc(F)cc3c2ccn3Cc2ccc(Cl)cc2)CC1 [Compound 165]	++ (>2-fold change in p62 puncta levels relative to DMSO control)
CC(C)(C)OC(=O)COCCNCc1cc(F)cc2c1ccn2Cc1ccc(Cl)cc1 [Compound 141]	+ (<2-fold change in p62 puncta levels relative to DMSO control)
C#CCCOCCOCCNCc1cc(F)cc2c1ccn2Cc1ccc(Cl)cc1 [Compound 86]	++ (>2-fold change in p62 puncta levels relative to DMSO control)
CC(C)(C)OC(=O)N1CCN(CCOCCNCc2cc(F)cc3c2ccn3Cc2ccc(Cl)cc2)CC1 [Compound 156]	++ (>2-fold change in p62 puncta levels relative to DMSO control)
CC(C)(C)OC(=O)N[C@H]1CC[C@@H](COCCNCc2cc(F)cc3c2ccn3Cc2ccc(Cl)cc2)CC1 [Compound 176]	++ (>2-fold change in p62 puncta levels relative to DMSO control)
CC(C)(C)OC(=O)N1CCC(CCOCCNCc2cc(F)cc3c2ccn3Cc2ccc(Cl)cc2)CC1 [Compound 161]	++ (>2-fold change in p62 puncta levels relative to DMSO control)
COC(=O)c1cccc(COCCNCc2cc(F)cc3c2ccn3Cc2ccc(Cl)cc2)c1 [Compound 145]	+ (<2-fold change in p62 puncta levels relative to DMSO control)
COC(=O)c1ccc(N2CCC(COCCNCc3cc(F)cc4c3ccn4Cc3ccc(Cl)cc3)CC2)cc1 [Compound 171]	++ (>2-fold change in p62 puncta levels relative to DMSO control)
CC(C)(C)OC(=O)N1CCC(COCCOCCNCc2cc(F)cc3c2ccn3Cc2ccc(Cl)cc2)CC1 [Compound 174]	++ (>2-fold change in p62 puncta levels relative to DMSO control)
CC(C)(C)OC(=O)NCCCCCOCCNCc1cc(F)cc2c1ccn2Cc1ccc(Cl)cc1 [Compound 157]	++ (>2-fold change in p62 puncta levels relative to DMSO control)
CC(C)(C)OC(=O)NC[C@H]1CC[C@H](COCCNCc2cc(F)cc3c2ccn3Cc2ccc(Cl)cc2)CC1 [Compound 175]	++ (>2-fold change in p62 puncta levels relative to DMSO control)
COC(=O)CCOCCNCC(O)COc1cccc2c1ccn2Cc1ccccc1 (stereo not shown) [Compound 118]	++ (>2-fold change in p62 puncta levels relative to DMSO control)
COC(=O)CCOCCOCCOCCNCc1cc(F)cc2c1ccn2Cc1ccc(Cl)cc1 [Compound 169]	+ (<2-fold change in p62 puncta levels relative to DMSO control)
COC(=O)c1ccc(OCCOCCNCc2cc(F)cc3c2ccn3Cc2ccc(Cl)cc2)cc1 [Compound 168]	++ (>2-fold change in p62 puncta levels relative to DMSO control)
COC(=O)c1ccc(COCCNCc2cc(F)cc3c2ccn3Cc2ccc(Cl)cc2)cc1 [Compound 144]	+ (<2-fold change in p62 puncta levels relative to DMSO control)
CNCCOCc1cc(F)cc2c1ccn2Cc1ccc(Cl)cc1 [Compound 178]	++ (>2-fold change in p62 puncta levels relative to DMSO control)
C#CCCOCCOCCOCCNCc1cccc2c1ccn2CCc1cccnc1 [Compound 126]	+ (<2-fold change in p62 puncta levels relative to DMSO control)
CC(C)(C)OC(=O)Nc1cccc(COCCNCc2cc(F)cc3c2ccn3Cc2ccc(Cl)cc2)c1 [Compound 162]	++ (>2-fold change in p62 puncta levels relative to DMSO control)
CC(C)(C)OC(=O)NCCCCCCCCOCCNCc1cc(F)cc2c1ccn2Cc1ccc(Cl)cc1 [Compound 158]	++ (>2-fold change in p62 puncta levels relative to DMSO control)
CC(C)(C)OC(=O)COCCCOCCNCc1cc(F)cc2c1ccn2Cc1ccc(Cl)cc1 [Compound 139]	+ (<2-fold change in p62 puncta levels relative to DMSO control)
C#CCCCCCCOCCNCc1cc(F)cc2c1ccn2Cc1ccc(Cl)cc1 [Compound 151]	+ (<2-fold change in p62 puncta levels relative to DMSO control)
CC(C)(C)OC(=O)N1CCC(COCCNCc2cc(F)cc3c2ccn3Cc2ccc(Cl)cc2)CC1 [Compound 134]	++ (>2-fold change in p62 puncta levels relative to DMSO control)
